Here are results for twelve molecules from patent publication US20200148617A1, “GEMCABENE, PHARMACEUTICALLY ACCEPTABLE SALTS THEREOF, COMPOSITIONS THEREOF AND METHODS OF USE THEREFOR” (GEMPHIRE THERAPEUTICS INC., priority 2017, published 2020).

Test system in the first data set: not listed separately
The experiment in a line: Particle size distribution by laser light diffraction (Malvern Mastersizer 2000, Fraunhofer). Format: physicochemical. Particulars: cumulative volume. As to the method:
In some embodiments, the particle size distribution and the PSD90 of a compound of the invention is determined by the laser light diffraction particle size distribution analysis. The particle size distribution is determined in accordance with the Fraunhofer light diffraction method. In this method, a coherent laser beam passes through the sample and the resulting diffraction pattern is focused on a multi-element detector. Since the diffraction pattern depends, among other parameters, on particle size, the particle size distribution can be calculated based on the measured diffraction pattern of the sample. The method is described in more detail in USP38-NF33, <429> Light Diffraction Measurement of Particle Size.
The particle size distribution was determined in accordance with the Fraunhofer light diffraction method. A coherent laser beam was passed through the sample and the resulting diffraction pattern was focused on a multi-element detector. Because the diffraction pattern depends, among other parameters, on particle size, the particle size distribution (PSD) was calculated based on the measured diffraction patter of the sample.
Stock dispersion solution was prepared by adding a few drops of the dispersing aid (e.g., 1% w/w solution of a detergent in white spirit such as Span 80, Fluka (85548-250 ml)) to an appropriate amount of substance and mixed carefully. The dispersion was then slowly diluted to a final volume of about 10 ml while vortexing. The suspension cell of the instrument (Malvern Mastersizer 2000 equipped with Hydro 2000S sample dispersion unit) was filled with dispersion medium and a background measurement was taken. […] The cumulative volume distribution was determined in accordance with the instrument's instruction manual.
The PSD10, PSD50, and PSD90 values were determined from the cumulative volume distribution of each measurement. Values smaller than 10 μm were reported to one decimal place. Results larger than 10 μm were reported as single digit values. Sample parameters used in analysis are shown below: […]
In the case of `CC(C)(CCCCOCCCCC(C)(C)C(=O)[O-])C(=O)[O-].[Ca+2]` [Sample 1], the “D10 (PSD10)” value was 6.3 μm and the “D50 (PSD50)” value came out at 50.4 μm.

As to `CC(C)(CCCCOCCCCC(C)(C)C(=O)[O-])C(=O)[O-].[Ca+2]` [Sample 2], the “D10 (PSD10)” value is given as 4.8 μm and the “D50 (PSD50)” value was determined as 22.9 μm.

On to `CC(C)(CCCCOCCCCC(C)(C)C(=O)[O-])C(=O)[O-].[Ca+2]` [Sample 3], for which the “D10 (PSD10)” value is 5.3 μm and the “D50 (PSD50)” value is recorded as 32.2 μm.

For `CC(C)(CCCCOCCCCC(C)(C)C(=O)[O-])C(=O)[O-].[Ca+2]` [Sample 4], the “D10 (PSD10)” value was 5.8 μm, the “D50 (PSD50)” value came to 22 μm and the “D90 (PSD90)” value is listed as 52 μm.

`CC(C)(CCCCOCCCCC(C)(C)C(=O)[O-])C(=O)[O-].[Ca+2]` [Sample 5]: the “D10 (PSD10)” value is on record as 7.8 μm, the “D50 (PSD50)” value is 101 μm and the “D90 (PSD90)” value was found to be 431 μm.

Regarding `CC(C)(CCCCOCCCCC(C)(C)C(=O)[O-])C(=O)[O-].[Ca+2]` [Sample 6], the “D10 (PSD10)” value amounted to 7.8 μm, the “D50 (PSD50)” value was found to be 25 μm and the “D90 (PSD90)” value is 52 μm.

Turning to `CC(C)(CCCCOCCCCC(C)(C)C(=O)[O-])C(=O)[O-].[Ca+2]` [Sample 7], the “D10 (PSD10)” value was 5.4 μm, the “D50 (PSD50)” value is recorded as 20 μm and the “D90 (PSD90)” value is reported as 62 μm.

On to `CC(C)(CCCCOCCCCC(C)(C)C(=O)[O-])C(=O)[O-].[Ca+2]` [Sample 8], for which the “D10 (PSD10)” value was 8.2 μm, the “D50 (PSD50)” value is listed as 24 μm and the “D90 (PSD90)” value stood at 48 μm.

Regarding `CC(C)(CCCCOCCCCC(C)(C)C(=O)[O-])C(=O)[O-].[Ca+2]` [Sample 9], the “D10 (PSD10)” value was 17 μm, the “D50 (PSD50)” value is given as 386 μm and the “D90 (PSD90)” value was determined as 996 μm.

For the molecule `CC(C)(CCCCOCCCCC(C)(C)C(=O)[O-])C(=O)[O-].[Ca+2]` [Sample 10], the “D90 (PSD90)” value is listed as 55 μm.

Turning to `CC(C)(CCCCOCCCCC(C)(C)C(=O)[O-])C(=O)[O-].[Ca+2]` [Sample 11], the “D90 (PSD90)” value stood at 47 μm.

In the next data set the test system is hepatic mRNA expression in STAM™ mice. The data set can be described thus: Murine STAM model of NASH-HCC: hepatic gene expression by quantitative RT-PCR. Particulars: 10 mg/kg; normalized to Vehicle in Normal; mean ± SD, n = 7. Format: in vivo, mouse. The protocol: A study was performed to evaluate the efficacy of gemcabene calcium salt hydrate Crystal Form 1 having a PSD90 of 52 μm as measured by laser light diffraction, in treating non-alcoholic steatosis hepatitis (NASH) in the murine STAM™ model of NASH-HCC.
Briefly, two-day old neonatal C57BL/6 male mice were administered low-dose streptozotocin (STZ), and were subsequently fed a HFC diet from 4 weeks of age. In this model, the mice typically develop liver steatosis and diabetes, reaching steatohepatitis within 3 weeks, followed by cirrhosis within 8 weeks, and carcinoma within 16 weeks. In the current study, mice were administered daily oral gemcabene calcium salt hydrate Crystal Form 1 starting at week 6 of age and were sacrificed at week 9. Telmisartan (with antisteatotic, anti-inflammatory and antifibrotic effects in STAM™ mice) was used as a positive comparator. A baseline reference group was administered vehicle at day 2 of age, and from week 6 of age was vehicle-treated and chow-fed. Five STAM™ groups were streptozocin-treated at day 2 of age and fed a HFC-diet beginning with week 4 of age. These STAM™ groups were orally administered from week 6 one of the following: water-vehicle, gemcabene calcium salt hydrate Crystal Form 1 at 30, 100 and 300 mg/kg daily, or telmisartan ([…]®) 10 mg/kg daily. Telmisartan ([…]®) was purchased from Boehringer Ingelheim GmbH (Germany) and dissolved in pure water. All groups were sacrificed at week 9. Vehicle, gemcabene calcium salt hydrate Crystal Form 1, or telmisartan were administered by oral gavage once daily.
Various gene expression markers of liver metabolism were evaluated by Real-Time PCR (RT-PCR) in all mouse groups. Total RNA was extracted from liver samples using RNAiso (Takara Bio, Japan) according to the manufacturer's instructions. One μg of RNA was reverse-transcribed using a reaction mixture containing 4.4 mM MgCl2 (F. Hoffmann-La Roche, Switzerland), 40 U RNase inhibitor (Toyobo, Japan), 0.5 mM dNTP (Promega, USA), 6.28 μM random hexamer (Promega), 5× first strand buffer (Promega), 10 mM dithiothreitol (Invitrogen, USA) and 200 U MMLV-RT (Invitrogen) in a final volume of 20 μL. The reaction was carried out for 1 hour at 37° C., followed by 5 minutes at 99° C. Real-time PCR was performed using real-time PCR DICE and SYBR premix Taq (Takara Bio). To calculate the relative mRNA expression level, the expression of each gene was normalized to that of reference gene 36B4 (gene symbol: Rplp0). Information of PCR-primer sets is described in Tables 20A-20C. Statistical analyses were performed using the Bonferroni Multiple Comparison Test on GraphPad Prism 6 (GraphPad Software Inc., USA). P values <0.05 were considered statistically significant. Results are expressed as mean±SD.
In order to calculate the relative mRNA expression level, the expression of each gene was normalized to that of the reference gene 36B4 (gene symbol: Rplp0). The gene expression levels were measured by quantitative RT-PCR. Results were normalized with values for the vehicle-treated normal group. […] Gemcabene calcium salt hydrate Crystal Form 1 (PSD90=52 μm) modulated the mRNA expression of many hepatic genes that play a significant role in the liver homeostasis and injury.
Turning to `CCCc1nc2c(C)cc(-c3nc4ccccc4n3C)cc2n1Cc1ccc(-c2ccccc2C(=O)O)cc1` [telmisartan, reference compound], the “ANGPTL3 gene expression (hepatic mRNA, RT-PCR)” value is recorded as 0.7 ± 0.2; the “ANGPTL4 gene expression (hepatic mRNA, RT-PCR)” value stood at 2.1 ± 0.3; the “CCR5 gene expression (hepatic mRNA, RT-PCR)” value is 1.5 ± 0.3; the “CXCL1/KC gene expression (hepatic mRNA, RT-PCR)” value is 0.6 ± 0.3. Also, the “LPL gene expression (hepatic mRNA, RT-PCR)” value was 2.4 ± 0.5 and the “Sulf-2 gene expression (hepatic mRNA, RT-PCR)” value was determined as 3.9 ± 0.9.

Staying with this data set, now noted: telmisartan 10 mg/kg; vs vehicle-treated STAM group.
Turning to `CCCc1nc2c(C)cc(-c3nc4ccccc4n3C)cc2n1Cc1ccc(-c2ccccc2C(=O)O)cc1` [telmisartan, reference compound], the “CRP mRNA levels” value is “No significant differences”.
